Data taken from paper PMC9658316, “Discovery of Mitochondrial Complex I Inhibitors as Anticancer and Radiosensitizer Drugs Based on Compensatory Stimulation of Lactate Release” (Cancers, 2022).

Assays:
[1] = system: colorectal CT26 cancer cells; assay: Compound-induced L-lactate release (Assay #1), CT26; assay type: cell-based, mouse; conditions: 10 µM; for L-lactate release compared with reference compound aa: 24 h; for [LAC] increase: 24 h exposure, L-lactate secretion above basal release
Procedure: (§1) L-lactate concentration was measured in a semi-automated manner using CMA Microdialysis AB enzymatic assay and a CMA 600 analyzer (Aurora Borealis, Schoonebeek, The Netherlands) as previously described. Briefly, cells (2 × 10^5 cells per well; 3 wells/condition) were seeded in 12-well plates with 2 mL of their routine culture medium. After 24 h, medium was replaced by 500 µL of DMEM containing 10 mmol/L D-glucose and supplemented with 2 mmol/L L-glutamine and 10% dialyzed FBS (Sigma-Aldrich), in the presence of the compounds or vehicle (DMSO). The initial concentration of L-lactate in the experimental medium was also assessed by including control wells containing only cell culture medium (no cells) on each plate. After incubation for 24 h, extracellular media were collected and deproteinized by centrifugation (15 min, 10,000 rpm, 4 °C) in 10 kDa cut-off filter tubes (VWR, Avantor, Leuven, Belgium). Differences in L-lactate concentrations between control and treated cells were calculated and normalized by the protein content in each well and expressed in µmol/h/mg protein. Oxygen-consumption rate (OCR) was measured using the Seahorse XF96 plate reader as previously reported. Briefly, cells (2 × 10^4 cells per well) were first permeabilized with 1 nM Seahorse XF Plasma Membrane Permeabilizer (#102504-100; Agilent, Machelen, Belgium) and respiration was stimulated by adding 10 mM pyruvate, 5 mM malate, and 2 mM ADP. After baseline OCR determination, compounds were added (to inhibit complex I) followed by 10 mM succinate to fuel complex II and rescue the electron transport chain. In some experiments, the effects of selected hits on basal OCR were evaluated in intact cells (including in the presence of MCT1/2 inhibitor AR-C155858 [29] or methylpyruvate). OCR data were normalized according to protein content in each well.
Figure 3 Compound-induced L-lactate release (Assay #1). Culture medium was collected after 24 h exposure to the indicated compounds (10 µM) and the amount of extracellular L-lactate release was determined in a semi-automated manner; dose-dependent effects of complex I inhibitor IACS are shown on the right (shaded bars). Bar graph depicts the extent of L-lactate secretion above the basal release as determined in the absence of any compound (n = 3, ** p < 0.01 for increased L-lactate release vs. reference compound aa).

[2] = system: CT26 colon cancer cells; assay: Growth inhibitory effects on cultured CT26 cells (Presto Blue); assay type: cell-based, mouse; conditions: CT26 monolayers, 1 µM, 72 h
Description: (§2) Mouse colorectal CT26 and breast 4T1 cancer cells as well as human cervix cancer SiHa and breast MDA-MD-231 cancer cells were acquired from ATCC where they are regularly authenticated by short tandem repeat profiling. They were stored according to the supplier’s instructions and used within 6 months after resuscitation of frozen aliquots. Cancer cells were maintained in DMEM (Life Technologies, ThermoFischer scientific, Merebelke, Belgium) supplemented with 10% heat-inactivated FBS. All cell lines were tested for mycoplasma contamination with the MycoAlert™ Mycoplasma Detection kit (#LT07-318; Lonza, Verviers, Belgium) before being used. Cell integrity was determined by the Trypan Blue exclusion method (using Bürker chambers) while cell growth was assessed by using the Presto Blue reagent (Life Technologies) according to manufacturer’s instructions.
(§3) Figure 4 Mitochondrial complex I activity inhibition (Assay #2). (A–D). Graphs depict changes in O2 consumption rate (OCR) measured with the Seahorse technology on permeabilized CT26 cancer cells upon successive addition of pyruvate/malate, the indicated inhibitor and succinate. OXPHOS I inhibitor IACS was used as a control in the experiments testing reference compound aa (A), and compound aa (10µM) was used as reference for testing au, ah and at derivatives (B–D) (n = 6 per compound). (E,F). Growth inhibitory effects of cultured CT26 (E) and 4T1 […] cancer cells exposed to 100 nM IACS or 1 µM aa, ag, aj and au compounds for 72 h; data represent the reduced extent (expressed as %) of cell viability (determined with Presto Blue) when compared with vehicle conditions (n = 3).

[3] = system: breast 4T1 cancer cells; assay: Growth inhibitory effects on cultured 4T1 cells (Presto Blue); assay type: cell-based, mouse; conditions: 4T1 monolayers, 1 µM, 72 h, compared with CT26
Description: as §2, §3

[4] = system: human cervix Siha cancer cells; assay: Growth inhibitory effects on human cancer cells (Presto Blue), SiHa vs MDA-MB-231; assay type: cell-based; conditions: 1 µM
Description: as §2
Suppl. Figure S3. Growth inhibitory effects of hit compounds on human cancer cells. MDA-M B-231 (A) and Siha (B) cancer cells were exposed to 100 nM IACS or 1 µM aa, ag, aj and au compounds; data represent the reduced extent (expressed as %) of cell viability (determined with Presto Blue) when compared with vehicle conditions (n=3).
(also on this page, place not known: 60Growth inhibitory effects (%) MDA-MB-231 aa au 60Growth inhibitory effects (%))

[5] = system: 3D tumor CT26 spheroids; assay: Inhibition of 3D tumor spheroid growth (Assay #3); assay type: cell-based, mouse; conditions: for spheroid growth inhibition compared with reference compound aa: CT26 spheroids, day 10; for 3D growth inhib. (%): 3D tumor CT26 spheroids
Procedure: (§4) Spheroids were prepared by seeding 1500 cells/well in Ultra-Low Attachment 96-well plate (Corning, Merck, Hoeilaart, Belgium) in DMEM supplemented with 10% heat-inactivated FBS. Inhibitors were added on day 4 (mean diameter of spheroids: 300 µm) and renewed every 3 days. Spheroid growth was monitored using live-cell phase contrast microscope (Axio Observer, Zeiss, Zaventem, Belgium); spheroid area, density and morphology were measured using ImageJ software. Confocal fluorescence microscopy (LSM510, Zeiss, Zaventem, Belgium) was used for detecting pimonidazole immunostaining as previously reported. Spheroids from a same experiment were imaged with the same gain and exposure settings. In some experiments, OXPHOSi treatment was combined with irradiation using a ^137Cs γ-irradiator (IBL-637; CIS-BioInternational, Saclay, France) as previously described.
(§5) Figure 5 Inhibition of 3D tumor spheroid growth (Assay #3). […] Drug exposure without (A) or with irradiation (B) was associated with a significant reduction in spheroid sizes vs. untreated spheroids (not shown).

[6] = system: breast cancer 4T1 cancer cells; assay: Compound-induced L-lactate release (Assay #1), 4T1; assay type: cell-based, mouse; conditions: 4T1 cells, 24 h
Procedure: L-lactate concentration was measured in a semi-automated manner using CMA Microdialysis AB enzymatic assay and a CMA 600 analyzer (Aurora Borealis, Schoonebeek, The Netherlands) as previously described. Briefly, cells (2 × 10^5 cells per well; 3 wells/condition) were seeded in 12-well plates with 2 mL of their routine culture medium. After 24 h, medium was replaced by 500 µL of DMEM containing 10 mmol/L D-glucose and supplemented with 2 mmol/L L-glutamine and 10% dialyzed FBS (Sigma-Aldrich), in the presence of the compounds or vehicle (DMSO). The initial concentration of L-lactate in the experimental medium was also assessed by including control wells containing only cell culture medium (no cells) on each plate. […] Differences in L-lactate concentrations between control and treated cells were calculated and normalized by the protein content in each well and expressed in µmol/h/mg protein. Oxygen-consumption rate (OCR) was measured using the Seahorse XF96 plate reader as previously reported. […] In some experiments, the effects of selected hits on basal OCR were evaluated in intact cells (including in the presence of MCT1/2 inhibitor AR-C155858 [29] or methylpyruvate). […]
Suppl. […] Culture medium was collected after 24h exposure to the indicated compounds and lactate content was determined in a semi-automated manner. […]

[7] = target: mitochondrial complex I (Mus musculus, UniProt P03888+Q91WD5+Q9DC70); assay: Seahorse OCR in permeabilized CT26 cancer cells, mitochondrial complex I inhibition (Assay #2); assay type: cell-based; conditions: for pattern of OCR inhibition activity relative to aa: 1 and 10 µM; for IC50: pyruvate/malate, tested at 1 and 10 µM, read-out: OCR inhib. (IC50)
Procedure: as §1
(A–D). Graphs depict changes in O2 consumption rate (OCR) measured with the Seahorse technology on permeabilized CT26 cancer cells upon successive addition of pyruvate/malate, the indicated inhibitor and succinate. […] (E,F).

[8] = system: 3D tumor CT26 spheroids; assay: Radiosensitizing effects in 3D tumor spheroids (6 Gy irradiation); assay type: cell-based, mouse; conditions: 6 Gy irradiation at day 4, day 10 vs day 3
Procedure: as §4, §5
We also took advantage of 3D tumor spheroids to evaluate whether they could radiosensitize tumors upon O2 sparing resulting from inhibition of O2 consumption. […]

[9] = system: cancer cells from dissociated spheroids; assay: Regrowth of cells from dissociated spheroids after irradiation and compound; assay type: cell-based, mouse; conditions: plated for 14 days, compared with aa
Description: Finally, to document the expected re-oxygenation, spheroids treated with compounds aa, aj and am were exposed to the hypoxia probe pimonidazole.
(§6) Figure 6 Radiosensitizing effects of selected complex I inhibitors. (A) Extent of surviving cancer cells post-exposure to radiotherapy and the indicated compounds (n = 3, * p < 0.05, ** p < 0.01 vs. vehicle condition).

[10] = system: 3D tumor CT26 spheroids; assay: Pimonidazole immunostaining of hypoxia in spheroids; assay type: cell-based, mouse; conditions: treated spheroids
Procedure: as §4, §6

Row | SMILES | L-lactate release compared with reference compound aa [1] | [LAC] increase [1] [µmol/h/mg] | cytotoxic / growth inhibitory effects [2] | growth inhibitory activity [3] | antiproliferative effects in Siha compared with MDA-MB-231 cells [4] | spheroid growth inhibition compared with reference compound aa [5] | L-lactate release compared with aa compound [6] | pattern of OCR inhibition activity relative to aa [7] | 3D growth inhib. (%) [5] [%] | change in spheroid size with irradiation [8] | ability of cancer cells to re-grow after irradiation and compound [9] | reduction of hypoxia (pimonidazole) [10] | IC50 [7] [µM]
1 | NC(=O)c1nnn(Cc2cc(Cl)c(C(=O)c3ccc(C(F)(F)F)cc3)c(Cl)c2)c1N [ag] | more potent inducers of L-lactate release | ~4 | very limited effects | more significant growth inhibitory activity | Larger antiproliferative effects | inhibited spheroid growth to the same extent as compound aa | – | – | – | – | – | – | –
2 | COC(=O)c1cn(Cc2cc(Cl)c(C(=O)c3ccc(Cl)cc3)c(Cl)c2)nn1 [compound au] | more potent inducers of L-lactate release | ~4 | very limited effects | more significant growth inhibitory activity | Larger antiproliferative effects | significantly lesser growth inhibitory effects than compound aa | more | equiactive | <25 | – | – | – | –
3 | NC(=O)c1nnn(Cc2cc(Cl)c(C(=O)C3CCCCC3)c(Cl)c2)c1N [compound aj] | more potent inducers of L-lactate release | ~4 | very limited effects | more significant growth inhibitory activity | Larger antiproliferative effects | significantly more active than reference compound aa | – | – | >50 | net reduction in the spheroid size | much lesser ability to re-grow | reduced hypoxia to a larger extent than compound aa | –
4 | NC(=O)c1nnn(Cc2cc(Cl)c(Cc3ccc(Cl)cc3)c(Cl)c2)c1N [compound am] | more potent inducers of L-lactate release | ~4 | – | – | – | significantly more active than reference compound aa | – | – | >50 | net reduction in the spheroid size | much lesser ability to re-grow | reduced hypoxia to a larger extent than compound aa | ~10
5 | NCc1cn(Cc2cc(Cl)c(C(=O)c3ccc(Cl)cc3)c(Cl)c2)nn1 [at] | – | ~0 | – | – | – | – | less potent | inactive | – | – | – | – | > 10
